Reference: patent US20190169669A1, “[…] OF […] IDENTIFICATION OF NATURAL LIGAND OF SAID RECEPTOR AND USES THEREOF” (Institut National de la Recherche Agronomique, priority 2016, published 2019)

Test system: SlitOR5
Assay: Single-sensillum recordings on Drosophila at1 olfactory neurons expressing SlitOR5
Format: cell-based, Spodoptera littoralis
Settings: for significance of response versus solvent alone: n=7, Kruskal-Wallis ANOVA with Dunn's post-hoc test
Protocol: SlitOR5 can be heterologously expressed in vivo in an organism, for example Drosophila melanogaster, using transgenesis (e.g. the Gal4-UAS system in D. melanogaster). SlitOR5 can be expressed in a large part of the endogenous olfactory sensory neurons (OSNs) of the organism (for instance using the ORco promotor) or in a given subset of the OSN population. The modified responses of the antenna or of the targeted OSNs are then recorded using, respectively, electroantennography (EAG) and single sensillum recording (SSR). Some D. melanogaster mutant lines may be used to replace a native Drosophila OR with SlitOR5, such as the ab3A mutant line which allows for expression of SlitOR5 in ORNs usually expressing DmelOR22a (Hallem et al., Cell 2004, 117(7):965-979), and the DmelOr67dGAL4 mutant knock-in line, which allows for expression of SlitOR5 in place of DmelOR67d, in the unique OSN of the atl Drosophila sensilla (Kurtovic et al. Nature 2007, 446(7135):542-546). The candidate agent activity is measured as the antenna depolarization (EAG) or the number of action potential (SSR) generated by stimulation of an air flow containing the candidate agent (typically from 0.1 μg to 100 μg of the candidate agent loaded in the stimulation cartridge). Depolarization and action potential number are compared, respectively, to depolarization and action potential number generated by the agent solvent alone.
The transformant UAS-SlitOR5 balanced fly line was generated by BestGene Inc. (Chino Hills, Calif., USA), using the PhiC31 integrase system. Briefly, recombinant pUAST.attB-SlitOR5 plasmids were injected into embryos of a D. melanogaster line containing an attP insertion site within the second chromosome (genotype y1 M{vas-int.Dm}ZH-2A w*; M{3×P3-RFP.attP′}ZH-51C), leading to non-random integration. To drive expression of SlitOR5 in neurons housed in atl sensilla, the transformant UAS-SlitOR5 line was crossed to a line carrying the mutant knock-in allele Or67d^GAL4 (kindly provided by Dr. Barry Dickson, IMP, Vienna, Austria) to generate a double homozygous line w;UAS-SlitOr5;Or67d^GAL4. Flies were reared on standard cornmeal-yeast-agar medium and kept in a climate- and light-controlled environment (25° C., 12:12 light:dark cycle). The presence of the UAS-SlitO5 transgene was verified by PCR on genomic DNA extracted from two flies, and the expression of SlitOR5 in fly antennae was verified by RT-PCR on total RNA extracted from >100 pairs of antennae.
The response spectrum of SlitOR5 was tested by means of single-sensillum recordings on flies expressing the SlitOR5 transgene in atl neurons, instead of the endogenous receptor DmelOR67d. Two- to 10-day-old male flies were restrained in a plastic pipette tip with only the head protruding from the narrow end. The pipette tip was fixed with dental wax on a microscope glass slide with the ventral side of the fly facing upward. Then, the antenna was gently placed on a piece of glass slide and maintained by placing a glass capillary between the 2nd and 3rd antennal segments. Afterwards, the slides were placed under a light microscope (BX51WI, Olympus, Tokyo, Japan) equipped with a 100× magnification objective. Desiccation of the flies was avoided thanks to a constant 1.5 L·min^−1 flux of charcoal-filtered and humidified air, delivered through a glass tube of a 7 mm diameter, which terminated ca. 1.5 cm from the antenna.
Stimulation cartridges were built by placing a 1 cm^2 filter paper in the large opening end of a Pasteur pipette and dropping 10 μl of an odorant solution onto the paper before closing the pipette with a 1 mL plastic pipette tip. A screening panel of 26 pheromone compounds (see Table 1 for detail) were used at a 1 μg/μl dilution in hexane (10 μg deposited on the filter paper). Pipettes with filter papers containing 10 μL of solvent were used as controls. […]

[1] = response spectrum screen, 10 μg loaded in the stimulus cartridge

SMILES: CC/C=C\CCCCCCCCOC(C)=O [Z9-12:OAc, (Z)-9-dodecenyl acetate]
- significance of response versus solvent alone [1]: not significant

SMILES: CC/C=C/C=C\CCCCCCCCOC(C)=O [Z9,E11-14:OAc, (Z,E)-9,11-tetradecadienyl acetate]
- response of at1 neurons (firing rate), dose-response (dose 1 μg loaded on the stimulus cartridge, n=5): 15 spikes·s^−1
- response of at1 neurons (firing rate), dose-response (dose 10 μg loaded on the stimulus cartridge, n=5): 43 spikes·s^−1
- mean net response (firing rate) of SlitOR5-expressing neurons (response spectrum screen, 10 μg loaded in the stimulus cartridge, 500 ms air pulse, n=7, w;UAS-SlitOr5;Or67d^GAL4 flies): 75 spikes·s^−1
- significance of response versus solvent alone [1]: significant response
- response of at1 neurons versus solvent alone, dose-response (the two lower doses (dose range 0.01 μg to 10 μg), n=5): did not significantly differ

SMILES: CC/C=C\C=C/CCCCCCCCOC(C)=O [Z9,Z11-14:OAc, (Z,Z)-9,11-tetradecadienyl acetate]
- significance of response versus solvent alone [1]: not significant

SMILES: CCCC/C=C\CCCCCCCCOC(C)=O [Z9-14:OAc, (Z)-9-tetradecenyl acetate]
- significance of response versus solvent alone [1]: not significant
